Laboratory results taken from US7232578B2, “Pharmaceutical composition inducing cancer cell differentiation and the use for treatment and prevention of cancer thereof” (Bio Grand Co., Ltd., priority 2005, dated 2007).
One block for each molecule: values may come before it.

How the values were obtained:
HL-60 cells = experiment: Differentiation helper inducer activity (reductive index, retinoic acid-induced HL-60 differentiation, NBT+); format: cell-based; conditions: for Concentration to reach 0.5 reductive index (effective dose of differentiation inducer reduced to 50%): MAT inhibitors as differentiation helper inducers; for Concentration to reach 0.5 reductive index: methyltransferase inhibitors as differentiation helper inducers, HL-60, retinoic acid, 96 hours
Experimental: The differentiation of cancer cells was measured by using leukemic cancer cells HL-60 to quantitate the NBT+ cells. First, HL-60 cells were subcultured at an initial cell density 1.5×10^5 cells/ml, 10 ml/flask. A set of four flasks were used as the control, wherein only retinoic acid was added as differentiation inducer, the amount of which was adjusted to induce NBT+ cells to the range of 15% to 60%. Another flask was used as the blank which was added the solution only. The total amount of methanol in which retinoic acid was dissolved should not exceed 2%, so as not to affect the differentiation of cancer cells. Each of other sets also comprises four flasks, which were added smaller amounts of retinoic acid, and a blank flask with only the solvent. Different amounts of the differentiation helper inducers were added in each set. The cell numbers in every flask were counted after incubation for 96 hours, and NBT was assayed according to the method of Example 4. Generally, the natural differentiation of the HL-60 cells, i.e. without the action of any of the additives, is usually lower than 4%. In the sets containing only differentiation helper inducer, the differentiation of cells is less than 10%. The value of NBT+ in each flask is required to subtract the value of the blank control.
The value of ED50, i.e., the amount of the differentiation inducer required when NBT+ is 50%, can be obtained by plotting the amount against NBT+. The reductive index can be calculated from the ED50 value. Reductive index=ED50 in the presence of differentiation helper inducer/ED50 with cell differentiation inducer only. The lower the reductive index, the higher the activity of the differentiation helper induced.

HL-60 cancer cells = experiment: Completeness of retinoic acid-induced differentiation with helper inducers (NBT test); format: cell-based; conditions: 96 hours, FIG. 5
Experimental: Differentiation helper inducers can not only decrease the effective amount of the differentiation inducer, but also promote the completeness of differentiation. HL-60 cancer cells were subcultured at an initial cell density of 1.5×10^5 cells/ml. The culture flasks were grouped into three sets; each set includes 4-5 flasks. One flask was used as the blank without additives. One set was added 0.025-0.15 μM retinoic acid as the control; the other two sets were added 4 μM of uroerythrin or vitamin B2. NBT test was conducted as described in Example 4 after incubation for 96 hours. The values thus obtained were subtracted with the value obtained by the blank without additives.

[1] = tested on: HBL-100 breast cancer cells; experiment: Inhibition of colony formation of HBL-100 breast cancer cells; format: cell-based, human
Experimental: The activity of cancer cell colony formation is determined by using HBL-100 breast cancer cells according to the method described in Example 4, which is expressed by the percentage of the activity of cancer cell colony formation in a control group in which none of the chemicals is added. A group in which thymidine is used alone, a group in which CDA-II is used alone, and a group in which thymidine and CDA-II are used together (1:1) were tested. […] The synergistic effect is remarkable.
The activity of cancer cell colony formation is determined by using HBL-100 breast cancer cells according to the method described in Example 4. Each culture flask contains 5 ml medium, which contains 3000 HBL-100 cells and different amounts of CDA-11, vitamin C or vitamin B17. After incubation at 37° C. for 5 days, the cells were stained with Giemsa, and numbers of colonies with more than 8 cells were counted under a microscope.
Another indication of the anticancer activity of CDA-II is the inhibition of colony formation of HBL-100 breast cancer cell. At the beginning, the breast cancer cells growing at the exponential phase were washed with HBS solution, then about 2 ml 0.05% trypsin-0.53 mM EDTA was added, and the solution was incubated at 37° C. for 10 minutes. Thereafter, the cell density was measured, then an aliquot was taken and diluted to 3×10^3 cells/ml. 0.5 ml of the diluted solution was added into 4.5 ml culture medium with or without CDA-II and incubated at 37° C. Five days later, the medium was discarded, and the cells were washed with isotonic saline, then methanol was added to fix cells for 15 minutes. The fixed cells were stained for 30 minutes with Giemsa staining solution diluted 20 fold. After the staining solution was discarded, the cells were washed with water and dried. The colony number above 8 cells was counted under a microscope to determine the anticancer activity of CDA-II (the result is shown in table 1).
The experiment was carried out according to FIG. 6. HBL-100 cells were cultured with different dosages of CDA-II, vitamin C and vitamin B17 alone, and with the combination of CDA-II and vitamin C, or the combination of CDA-II and vitamin B17.

[2] = retinoic acid combined with 4 μM helper inducer

SMILES: O=C(O)CNC(=O)c1ccccc1 [hippuric acid]
Concentration to reach 0.5 reductive index (effective dose of differentiation inducer reduced to 50%) (HL-60 cells): 8 mM

SMILES: Cc1cc2nc3c(=O)[nH]c(=O)nc-3n(C[C@H](O)[C@H](O)[C@H](O)CO)c2cc1C [vitamin B2, riboflavin]
Extent of differentiation (NBT+) (HL-60 cancer cells; [2]): 100%
Concentration to reach 0.5 reductive index (HL-60 cells): 3.0 µM

SMILES: CCN(CC)CCNc1ccc(CO)c2sc3ccccc3c(=O)c12 [hycanthone]
Concentration to reach 0.5 reductive index (HL-60 cells): 2 µM

SMILES: O=C(O)Cc1ccccc1 [phenylacetic acid]
Concentration to reach 0.5 reductive index (effective dose of differentiation inducer reduced to 50%) (HL-60 cells): 4 mM

IC50 ([1]; Homo sapiens, HBL-100, 120 h, 5 days, FIG. 7, read-out: IC50, inhibition of the formation of colonies of HBL-100 human breast cancer cells): 530 µg/mL
SMILES: O=C1O[C@H]([C@@H](O)CO)C(O)=C1O [vitamin C]
inhibition at 200 µg/mL ([1]; Homo sapiens, HBL-100, vitamin C 0.2 mg/ml alone, read-out: Colony formation of HBL-100 cells: inhibition percentage, administered alone): 12%

SMILES: C=CC1=C(C)C(=O)N=C1C=c1[nH]c(=Cc2[nH]c(O)c(C)c2CCC(=O)O)c(CCC(=O)O)c1C [uroerythrin]
Extent of differentiation (NBT+) (HL-60 cancer cells; [2]): 100%
Concentration to reach 0.5 reductive index (HL-60 cells): 1.8 µM

SMILES: N#CC(O[C@@H]1O[C@H](CO[C@@H]2O[C@H](CO)[C@@H](O)[C@H](O)[C@H]2O)[C@@H](O)[C@H](O)[C@H]1O)c1ccccc1 (stereo partly shown) [vitamin B17]
IC50, inhibition of the formation of colonies of HBL-100 human breast cancer cells ([1]; 5 days, FIG. 7): 130 µg/mL
Colony formation of HBL-100 cells: inhibition percentage, administered alone ([1]; vitamin B17 0.05 mg/ml alone): 20%

SMILES: CC[n+]1c(-c2ccccc2)c2cc(N)ccc2c2ccc(N)cc21 [ethidium bromide]
Concentration to reach 0.5 reductive index (HL-60 cells): 0.95 µM

SMILES: CC1=C(/C=C/C(C)=C/C=C/C(C)=C/C(=O)O)C(C)(C)CCC1 [retinoic acid]
Extent of differentiation (NBT+) (HL-60 cancer cells; differentiation inducer (0.025-0.15 μM retinoic acid) used alone): about 85%
